Results reported in ChEMBL document CHEMBL5465560, “Selectivity Literature for EUbOPEN Chemogenomic Library” (2024).

Columns and labels:
[1] = target: Tyrosine-protein kinase BTK (Homo sapiens, UniProt Q06187); assay: Selectivity interaction (Upstate Kinase Profiler service (Millipore)) EUB0000056c BTK; details: at 1 µM
[2] = target: Macrophage-stimulating protein receptor (Homo sapiens, UniProt Q04912); assay: Selectivity interaction (KinomeScan (DiscoverX)) EUB0000655a MST1R; details: at 10 µM
[3] = target: T1, Cytoplasmic tyrosine-protein kinase BMX (Homo sapiens) (UniProt P51813); assay: Selectivity interaction (Kinase panel (DSF assay)) EUB0001559a BMX
T1 sequence (whole entry): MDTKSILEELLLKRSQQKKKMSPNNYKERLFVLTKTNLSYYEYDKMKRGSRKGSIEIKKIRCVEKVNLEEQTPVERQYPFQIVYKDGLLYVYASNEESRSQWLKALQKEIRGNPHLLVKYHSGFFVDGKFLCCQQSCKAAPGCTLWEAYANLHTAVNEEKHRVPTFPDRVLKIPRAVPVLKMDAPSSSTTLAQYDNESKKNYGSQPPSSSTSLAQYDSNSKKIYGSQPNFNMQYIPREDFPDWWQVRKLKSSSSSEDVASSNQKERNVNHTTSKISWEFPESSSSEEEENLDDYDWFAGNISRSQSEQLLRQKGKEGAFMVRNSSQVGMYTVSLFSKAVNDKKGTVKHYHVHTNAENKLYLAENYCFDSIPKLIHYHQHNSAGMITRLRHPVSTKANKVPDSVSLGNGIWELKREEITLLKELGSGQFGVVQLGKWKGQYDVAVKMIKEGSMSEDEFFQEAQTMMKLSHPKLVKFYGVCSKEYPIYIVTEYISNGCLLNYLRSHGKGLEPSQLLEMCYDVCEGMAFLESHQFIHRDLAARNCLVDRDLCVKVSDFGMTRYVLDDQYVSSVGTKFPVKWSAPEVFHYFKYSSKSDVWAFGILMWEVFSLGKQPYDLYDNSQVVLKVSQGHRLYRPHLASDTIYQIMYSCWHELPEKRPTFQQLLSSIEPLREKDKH

[4] = target: 5'-AMP-activated protein kinase catalytic subunit alpha-1 (Homo sapiens, UniProt Q13131); assay: Selectivity interaction (KinomeScan (DiscoverX)) EUB0000311b PRKAA1; details: at 1 µM
[5] = target: G protein-coupled receptor kinase 4 (Homo sapiens) (UniProt P32298); assay: Selectivity interaction (KinomeScan (DiscoverX)) EUB0000607a GRK4; details: at 10 µM
[6] = target: T2, Serine/threonine-protein kinase MAK (Homo sapiens) (UniProt P20794); assay: Selectivity interaction (KinomeScan (DiscoverX)) EUB0000045b MAK
T2 sequence (whole entry): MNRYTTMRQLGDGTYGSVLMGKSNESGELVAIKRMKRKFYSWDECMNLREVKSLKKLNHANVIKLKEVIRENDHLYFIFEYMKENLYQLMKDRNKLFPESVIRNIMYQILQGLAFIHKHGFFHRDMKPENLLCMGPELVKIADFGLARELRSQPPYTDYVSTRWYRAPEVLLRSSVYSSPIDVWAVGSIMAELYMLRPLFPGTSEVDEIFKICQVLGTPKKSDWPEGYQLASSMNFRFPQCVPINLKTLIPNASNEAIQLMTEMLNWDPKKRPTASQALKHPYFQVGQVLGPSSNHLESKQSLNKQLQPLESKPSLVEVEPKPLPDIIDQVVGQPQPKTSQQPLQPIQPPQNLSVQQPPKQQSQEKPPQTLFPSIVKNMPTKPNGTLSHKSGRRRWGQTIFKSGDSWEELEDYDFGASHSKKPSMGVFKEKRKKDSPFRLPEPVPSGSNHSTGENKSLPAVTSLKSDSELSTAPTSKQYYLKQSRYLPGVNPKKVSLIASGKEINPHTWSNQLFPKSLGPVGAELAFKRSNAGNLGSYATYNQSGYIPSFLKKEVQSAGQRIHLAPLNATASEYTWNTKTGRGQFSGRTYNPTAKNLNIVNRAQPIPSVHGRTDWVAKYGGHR

[7] = target: T3, Ephrin type-B receptor 2 (Homo sapiens) (UniProt P29323); assay: Selectivity interaction (Kinase screening (Nanosyn)) EUB0000604a EPHB2
T3 sequence (whole entry): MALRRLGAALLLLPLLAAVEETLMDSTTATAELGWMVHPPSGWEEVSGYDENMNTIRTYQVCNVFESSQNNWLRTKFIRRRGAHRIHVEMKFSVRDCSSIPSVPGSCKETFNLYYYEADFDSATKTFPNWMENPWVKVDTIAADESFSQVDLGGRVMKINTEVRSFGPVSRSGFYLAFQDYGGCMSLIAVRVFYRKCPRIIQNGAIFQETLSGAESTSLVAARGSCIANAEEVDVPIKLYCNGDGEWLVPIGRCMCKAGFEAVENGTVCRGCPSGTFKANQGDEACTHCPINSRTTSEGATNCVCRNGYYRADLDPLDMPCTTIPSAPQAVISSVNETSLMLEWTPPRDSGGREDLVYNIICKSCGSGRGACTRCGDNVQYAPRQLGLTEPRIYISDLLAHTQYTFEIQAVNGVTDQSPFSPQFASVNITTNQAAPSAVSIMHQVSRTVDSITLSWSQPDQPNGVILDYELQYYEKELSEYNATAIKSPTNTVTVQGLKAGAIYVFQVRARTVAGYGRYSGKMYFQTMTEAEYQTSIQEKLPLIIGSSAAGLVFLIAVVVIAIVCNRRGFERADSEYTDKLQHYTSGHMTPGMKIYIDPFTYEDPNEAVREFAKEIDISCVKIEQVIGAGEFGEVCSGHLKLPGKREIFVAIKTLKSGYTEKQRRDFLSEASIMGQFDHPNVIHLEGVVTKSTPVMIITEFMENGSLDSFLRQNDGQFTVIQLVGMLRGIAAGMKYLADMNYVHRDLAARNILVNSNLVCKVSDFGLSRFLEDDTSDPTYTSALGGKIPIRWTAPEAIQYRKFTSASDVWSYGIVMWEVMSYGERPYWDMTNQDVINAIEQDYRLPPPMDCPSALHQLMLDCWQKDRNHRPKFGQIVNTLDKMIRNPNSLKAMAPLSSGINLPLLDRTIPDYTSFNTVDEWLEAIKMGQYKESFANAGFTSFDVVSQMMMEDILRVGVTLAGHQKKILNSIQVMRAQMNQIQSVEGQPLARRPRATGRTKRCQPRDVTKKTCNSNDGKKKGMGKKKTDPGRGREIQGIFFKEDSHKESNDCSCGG

[8] = target: BDNF/NT-3 growth factors receptor (Homo sapiens) (UniProt Q16620); assay: Selectivity interaction (KinomeScan (DiscoverX)) EUB0001619a NTRK2; details: at 1 µM
Sequence of BDNF/NT-3 growth factors receptor (Homo sapiens) (Q16620 32-822 limits assumed): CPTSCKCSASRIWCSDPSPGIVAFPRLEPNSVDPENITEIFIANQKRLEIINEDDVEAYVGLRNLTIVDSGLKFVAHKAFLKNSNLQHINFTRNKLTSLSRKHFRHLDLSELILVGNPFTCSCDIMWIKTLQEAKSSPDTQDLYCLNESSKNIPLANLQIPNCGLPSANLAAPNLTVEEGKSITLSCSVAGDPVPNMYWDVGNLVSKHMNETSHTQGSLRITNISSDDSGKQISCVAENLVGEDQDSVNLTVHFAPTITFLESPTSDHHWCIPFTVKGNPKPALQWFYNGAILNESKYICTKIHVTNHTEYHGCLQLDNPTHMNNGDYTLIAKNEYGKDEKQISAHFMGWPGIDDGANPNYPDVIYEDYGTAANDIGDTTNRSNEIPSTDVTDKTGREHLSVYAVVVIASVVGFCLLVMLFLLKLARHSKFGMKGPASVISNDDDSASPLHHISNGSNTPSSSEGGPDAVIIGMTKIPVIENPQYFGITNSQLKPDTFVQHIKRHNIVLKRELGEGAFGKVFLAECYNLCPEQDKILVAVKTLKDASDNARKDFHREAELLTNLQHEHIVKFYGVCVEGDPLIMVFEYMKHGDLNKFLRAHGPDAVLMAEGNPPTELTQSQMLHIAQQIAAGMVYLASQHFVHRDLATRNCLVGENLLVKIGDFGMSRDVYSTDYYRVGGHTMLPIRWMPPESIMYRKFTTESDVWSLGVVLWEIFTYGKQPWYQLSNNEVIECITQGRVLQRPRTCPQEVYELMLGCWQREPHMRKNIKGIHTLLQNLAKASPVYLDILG

Sequence of G protein-coupled receptor kinase 4 (Homo sapiens) (P32298 whole entry, looked up): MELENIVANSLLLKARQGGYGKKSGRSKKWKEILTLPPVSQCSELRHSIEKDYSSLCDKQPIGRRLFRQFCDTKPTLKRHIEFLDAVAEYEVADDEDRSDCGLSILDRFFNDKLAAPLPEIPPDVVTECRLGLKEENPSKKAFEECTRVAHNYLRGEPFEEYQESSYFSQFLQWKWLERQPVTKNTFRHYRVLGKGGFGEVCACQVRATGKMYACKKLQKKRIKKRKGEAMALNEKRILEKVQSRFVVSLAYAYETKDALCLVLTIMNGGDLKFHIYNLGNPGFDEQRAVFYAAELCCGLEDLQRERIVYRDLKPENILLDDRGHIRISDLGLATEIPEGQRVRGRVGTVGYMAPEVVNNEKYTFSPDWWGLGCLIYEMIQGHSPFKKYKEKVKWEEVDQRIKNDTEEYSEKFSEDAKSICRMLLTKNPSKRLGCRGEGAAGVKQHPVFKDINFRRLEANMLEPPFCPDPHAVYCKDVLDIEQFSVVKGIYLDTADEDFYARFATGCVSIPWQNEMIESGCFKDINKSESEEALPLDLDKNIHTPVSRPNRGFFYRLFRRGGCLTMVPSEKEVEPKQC
Sequence of Tyrosine-protein kinase BTK (Q06187 whole entry): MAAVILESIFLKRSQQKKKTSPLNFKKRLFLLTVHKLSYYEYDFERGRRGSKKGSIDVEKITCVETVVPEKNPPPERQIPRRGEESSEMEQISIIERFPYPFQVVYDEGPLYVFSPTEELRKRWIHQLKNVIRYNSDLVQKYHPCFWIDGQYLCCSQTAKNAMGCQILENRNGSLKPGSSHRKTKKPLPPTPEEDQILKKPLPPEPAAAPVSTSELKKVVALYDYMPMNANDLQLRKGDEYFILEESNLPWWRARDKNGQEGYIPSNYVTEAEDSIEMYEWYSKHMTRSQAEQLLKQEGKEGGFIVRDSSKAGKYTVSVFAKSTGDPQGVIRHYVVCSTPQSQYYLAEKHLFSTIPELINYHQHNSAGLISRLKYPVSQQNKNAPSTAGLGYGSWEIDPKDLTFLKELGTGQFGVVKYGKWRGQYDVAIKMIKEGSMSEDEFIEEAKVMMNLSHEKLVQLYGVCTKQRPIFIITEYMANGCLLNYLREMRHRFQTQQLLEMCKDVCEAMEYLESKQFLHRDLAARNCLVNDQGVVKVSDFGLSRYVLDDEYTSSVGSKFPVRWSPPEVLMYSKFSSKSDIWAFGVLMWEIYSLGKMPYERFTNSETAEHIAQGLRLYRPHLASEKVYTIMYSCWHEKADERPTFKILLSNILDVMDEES
Sequence of 5'-AMP-activated protein kinase catalytic subunit alpha-1 (Q13131 whole entry, looked up): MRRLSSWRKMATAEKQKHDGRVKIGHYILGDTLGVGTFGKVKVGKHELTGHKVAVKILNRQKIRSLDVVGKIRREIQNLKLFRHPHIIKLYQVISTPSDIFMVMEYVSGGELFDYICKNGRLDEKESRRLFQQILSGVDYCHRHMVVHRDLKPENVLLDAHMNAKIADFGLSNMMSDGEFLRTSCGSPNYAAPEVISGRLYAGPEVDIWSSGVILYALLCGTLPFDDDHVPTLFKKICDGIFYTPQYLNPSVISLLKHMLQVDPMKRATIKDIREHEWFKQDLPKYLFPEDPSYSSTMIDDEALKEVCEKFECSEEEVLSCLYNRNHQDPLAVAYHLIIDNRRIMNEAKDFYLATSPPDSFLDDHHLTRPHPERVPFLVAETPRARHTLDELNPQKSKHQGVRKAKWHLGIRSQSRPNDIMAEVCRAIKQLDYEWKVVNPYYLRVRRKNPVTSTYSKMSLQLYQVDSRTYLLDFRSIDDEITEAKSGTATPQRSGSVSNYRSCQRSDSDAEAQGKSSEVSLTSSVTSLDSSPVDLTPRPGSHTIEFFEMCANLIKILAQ
Sequence of Macrophage-stimulating protein receptor (Q04912 25-304 limits assumed): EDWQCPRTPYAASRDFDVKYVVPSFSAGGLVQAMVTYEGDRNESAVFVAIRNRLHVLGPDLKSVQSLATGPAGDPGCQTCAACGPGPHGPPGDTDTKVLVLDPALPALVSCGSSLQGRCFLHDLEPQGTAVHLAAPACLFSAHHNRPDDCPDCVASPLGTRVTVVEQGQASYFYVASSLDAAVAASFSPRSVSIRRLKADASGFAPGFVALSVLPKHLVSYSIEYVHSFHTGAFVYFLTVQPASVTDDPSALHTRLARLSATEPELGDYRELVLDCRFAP
Sequence of Macrophage-stimulating protein receptor (Q04912 310-1400 limits assumed): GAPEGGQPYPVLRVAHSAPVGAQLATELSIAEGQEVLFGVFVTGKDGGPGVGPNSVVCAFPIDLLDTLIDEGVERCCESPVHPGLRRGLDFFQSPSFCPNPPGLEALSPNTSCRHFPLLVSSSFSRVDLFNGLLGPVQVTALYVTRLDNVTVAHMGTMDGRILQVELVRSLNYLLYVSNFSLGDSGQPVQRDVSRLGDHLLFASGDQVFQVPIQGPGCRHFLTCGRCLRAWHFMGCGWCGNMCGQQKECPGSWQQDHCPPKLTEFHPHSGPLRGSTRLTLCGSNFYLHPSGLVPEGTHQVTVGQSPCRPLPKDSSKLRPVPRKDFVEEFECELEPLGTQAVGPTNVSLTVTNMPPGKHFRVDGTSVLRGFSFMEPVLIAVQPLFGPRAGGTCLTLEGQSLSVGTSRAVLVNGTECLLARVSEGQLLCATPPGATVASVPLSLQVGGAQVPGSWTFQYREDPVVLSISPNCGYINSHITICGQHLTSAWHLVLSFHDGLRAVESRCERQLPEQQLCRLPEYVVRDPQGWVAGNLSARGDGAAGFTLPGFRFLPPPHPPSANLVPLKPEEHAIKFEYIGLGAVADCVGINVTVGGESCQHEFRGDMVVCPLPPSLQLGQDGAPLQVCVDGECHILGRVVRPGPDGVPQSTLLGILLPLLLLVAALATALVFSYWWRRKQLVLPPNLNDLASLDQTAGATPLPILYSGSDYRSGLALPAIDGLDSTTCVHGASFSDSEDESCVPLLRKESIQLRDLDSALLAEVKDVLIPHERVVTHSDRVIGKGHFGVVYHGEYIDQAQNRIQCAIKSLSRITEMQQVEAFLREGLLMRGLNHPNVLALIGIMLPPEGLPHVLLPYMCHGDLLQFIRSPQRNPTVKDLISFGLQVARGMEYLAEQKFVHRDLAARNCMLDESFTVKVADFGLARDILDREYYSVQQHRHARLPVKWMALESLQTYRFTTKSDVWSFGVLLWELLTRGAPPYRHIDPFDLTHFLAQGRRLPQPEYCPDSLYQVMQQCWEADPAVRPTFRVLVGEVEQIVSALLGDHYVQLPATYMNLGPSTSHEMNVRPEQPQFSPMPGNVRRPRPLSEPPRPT

Cc1ccc(-c2ccc3c(ccc4sc5c(c43)NC[C@@H](C)NC5=O)n2)cn1
% of inhibition [1]: 6%

CN(C)CCOc1ccc(-c2nc(-c3ccncc3)c(-c3ccc4c(c3)CC/C4=N\O)[nH]2)cc1
% of control [2]: 100%

CN(C(=O)c1cnn2cccnc12)c1cc2c(cc1N1CCOCC1)C(=O)N(C[C@@H](F)C(C)(C)O)C2
dTM [3]: 0.1 K

CCc1ccccc1C(=O)Nc1n[nH]c2c(C)c(F)c(C3C(C#N)=C(C)N(C)C(C)=C3C#N)cc12 [BAY-3827]
% of control [4]: 7.5%

CNC(=O)Nc1ccc(-c2nc(N3CC4CCC(C3)O4)c3cnn(C4CCC5(CC4)OCCO5)c3n2)cc1
% of control [5]: 100%

C=CC(=O)Nc1cc(-n2c(=O)ccc3cnc4ccc(-c5ccc(NS(C)(=O)=O)cc5)cc4c32)ccc1C
% of control ([6]; at 1 µM): 70%
% of control ([6]; at 10 µM): 100%

Cc1cnc(Nc2ccc(F)cc2Cl)nc1-c1c[nH]c(C(=O)N[C@H](CO)c2cccc(Cl)c2)c1
% of inhibition [7]: 0%

N#Cc1cccc(-c2c[nH]c3ncnc(N4CCOCC4)c23)c1
% of control [8]: 63%
